For data set [1], the system named is Mycobacterium tuberculosis H37Rv. Description: microbe, parasite or virus in culture. The following applies: for MIC: read-out: H37Rv Finding MIC.
Data set [2] can be described thus: in vitro. The settings on record: African green monkey.
In data set [3] the test system is Mycobacterium tuberculosis H37Rv. The following applies: for H37Rv Finding Activity: M. tuberculosis H37Rv, MABA in BACTEC 12B medium.
A short description of data set [4]: in vitro. The following applies: cat.
Data set [5] relates to human embryonic lung (HEL) fibroblast cells. The following applies: minimum cytotoxic concentration, microscopic inspection of cell morphology.
In another data set the test system is Vaccinia virus. Description: microbe, parasite or virus in culture. Type of data set: cell-based. The following applies: for EC50: Orthopoxvirus vaccinia, HEL, read-out: Antiviral EC50 Vaccinia virus.
The test system of a further data set is VERO cells. The following applies: minimum cytotoxic concentration, microscopic inspection of cell morphology.
The next data set deals with Sindbis virus. In words: Antiviral CPE reduction assay, Sindbis virus in VERO cells. Type of data set: cell-based. The following applies: for EC50: Sindbis virus, Vero, read-out: Antiviral EC50 Sindbis virus; for Antiviral EC50 Sindbis virus: VERO cells, CPE by microscopy, mean of two experiments.
Another data set relates to ACV^r-HSV-1. Description: Antiviral CPE reduction assay, ACVr-HSV-1 in HEL cells. Type of data set: cell-based. The settings on record: for EC50: Human alphaherpesvirus 1, HEL, read-out: Antiviral EC50 ACV^r-HSV-1; for Antiviral EC50 ACV^r-HSV-1: HEL cells, CPE by microscopy, mean of two experiments.
A further data set concerns Feline coronavirus. In words: microbe, parasite or virus in culture. The following applies: Alphacoronavirus 1, CRFK, read-out: Antiviral EC50 Feline coronavirus.
A further data set has as its system Punto Toro virus. Description: Antiviral CPE reduction assay, Punto Toro virus in VERO cells. The format is cell-based, Punta toro virus. The settings on record: for EC50: Punta Toro virus, Vero, read-out: Antiviral EC50 Punto Toro virus; for Antiviral EC50 Punto Toro virus: VERO cells, CPE by microscopy, mean of two experiments.
The subject of the next data set is Reovirus-1. In words: Antiviral CPE reduction assay, Reovirus-1 in VERO cells. The format is cell-based. The settings on record: for EC50: Vero, read-out: Antiviral EC50 Reovirus-1; for Antiviral EC50 Reovirus-1: VERO cells, CPE by microscopy, mean of two experiments.
The next data set deals with Feline herpesvirus. Description: Antiviral CPE reduction assay, Feline herpesvirus in CRFK cells. The format is cell-based. The following applies: Felid alphaherpesvirus 1, CRFK, read-out: Antiviral EC50 Feline herpesvirus.
A further data set has as its system Coxsackie B4 virus. In words: Antiviral CPE reduction assay, Coxsackie B4 virus in VERO cells. Type of data set: cell-based. The settings on record: for EC50: Enterovirus B, B4, Vero, read-out: Antiviral EC50 Coxsackie B4 virus; for Antiviral EC50 Coxsackie B4 virus: VERO cells, CPE by microscopy, mean of two experiments.
In a further data set the test system is HSV-2. Description: Antiviral CPE reduction assay, HSV-2 in HEL cells. Type of data set: cell-based, Herpes simplex virus-2. The settings on record: for EC50: Human alphaherpesvirus 2, HEL, read-out: Antiviral EC50 HSV-2; for Antiviral EC50 HSV-2: HEL cells, CPE by microscopy, mean of two experiments.
Another data set concerns Parainfluenza-3 virus. In words: Antiviral CPE reduction assay, Parainfluenza-3 virus in VERO cells. Type of data set: cell-based. The following applies: for EC50: Vero, read-out: Antiviral EC50 Parainfluenza-3 virus; for Antiviral EC50 Parainfluenza-3 virus: VERO cells, CPE by microscopy, mean of two experiments.
A further data set deals with HSV-1. Description: Antiviral CPE reduction assay, HSV-1 in HEL cells. Type of data set: cell-based, Herpes simplex virus-1. The settings on record: for EC50: Human alphaherpesvirus 1, HEL, read-out: Antiviral EC50 HSV-1; for Antiviral EC50 HSV-1: HEL cells, CPE by microscopy, mean of two experiments.
The next data set deals with DNA virus. Description: Anti-DNA virus activity in HEL cells. Type of data set: cell-based.
In data set [6] the test system is Vesicular stomatitis virus. Type of data set: cell-based.
For a further data set, the system named is CRFK feline kidney cells. The following applies: MTS cell viability assay.

≈ marks a conversion by molar mass, not a printed value.

As for `CO[C@H]1/C=C/O[C@@]2(C)Oc3c(C)c(O)c4c(O)c(c(/C=N/N5CCN(C)CC5)c(O)c4c3C2=O)NC(=O)/C(C)=C\C=C\[C@H](C)[C@H](O)[C@@H](C)[C@@H](O)[C@@H](C)[C@H](OC(C)=O)[C@@H]1C` [Rifampin, reference compound], the MIC in [1] turned out to be 0.125 µg/mL (≈ 0.152 µM). Further, the CC50 in the data set “in vitro [2]” is above 100 µg/mL. Moreover, in data set [3], the “H37Rv Finding Activity” value was “Active”.
By EC50 is commonly meant the concentration needed to bring the measured effect to its halfway point. On to `O=C(Cc1csc2nc(-c3ccc(Br)cc3)cn12)NN1C(=O)CSC12CCC(c1ccc(O)cc1)CC2` (stereo not drawn) [Compound 5d, 2-[6-(4-Bromophenyl)imidazo[2,1-b]thiazole-3-yl]-N-(3-oxo-8-(4-hydroxyphenyl)-1-thia-4-azaspiro[4.5]dec-4-yl)acetamide], for which the selectivity ratio in “in vitro [4]” is above 20. For the same molecule, the “Cytotoxicity MCC” value in [5] is listed as 20 µg/mL; in the data set on VERO cells it was above 100 µg/mL. Moreover, the EC50 in the data set with Vaccinia virus was above 100 µg/mL; with Sindbis virus, above 100 µg/mL; with ACV^r-HSV-1 it was above 100 µg/mL; in the data set on Feline coronavirus it was 4.8 µg/mL (≈ 8.03 µM); in the data set with Punto Toro virus, above 100 µg/mL; in the data set on Reovirus-1 it was above 100 µg/mL. In addition, the EC50 in the data set with Feline herpesvirus was 21 µg/mL (≈ 35.1 µM); in the data set with Coxsackie B4 virus, above 100 µg/mL; with HSV-2, above 100 µg/mL; with Parainfluenza-3 virus it was above 100 µg/mL; in the data set on HSV-1 it was above 100 µg/mL.
In the case of `O=C(Cc1csc2nc(-c3ccc(Br)cc3)cn12)NN=C1CCC(c2ccc(O)cc2)CC1` (stereo not drawn) [Compound 4d, 6-(4-Bromophenyl)–N^2-(4-hydroxyphenylcyclohexylidene)imidazo[2,1-b]thiazole-3-acetohydrazide], the “antiviral EC50 values, anti-DNA virus activity” value in the data set with DNA virus is given as “about 45 µg/mL”. Also, the “Cytotoxicity MCC” value (in data set [5]; in the data set on VERO cells) was above 100 µg/mL each time. Moreover, the “Antiviral EC50 Vaccinia virus” value in the data set with Vaccinia virus was 45 µg/mL. In the data set on Sindbis virus, the “Antiviral EC50 Sindbis virus” value was above 100 µg/mL. In data set [6], the “Antiviral EC50 Vesicular stomatitis virus” value is listed as above 100 µg/mL. Further, in the data set on ACV^r-HSV-1, the “Antiviral EC50 ACV^r-HSV-1” value came to 45 µg/mL. Moreover, the “Antiviral EC50 Punto Toro virus” value in the data set on Punto Toro virus is given as above 100 µg/mL. Moreover, the “Antiviral EC50 Reovirus-1” value in the data set on Reovirus-1 was above 100 µg/mL. Also, the “Cytotoxicity CC50” value with CRFK feline kidney cells amounted to 68 µg/mL. Besides, in the data set on Coxsackie B4 virus, the “Antiviral EC50 Coxsackie B4 virus” value is reported as above 100 µg/mL. Besides, in the data set with HSV-2, the “Antiviral EC50 HSV-2” value came out at 45 µg/mL. Also, in the data set on Parainfluenza-3 virus, the “Antiviral EC50 Parainfluenza-3 virus” value is reported as above 100 µg/mL. For the same molecule, in the data set on HSV-1, the “Antiviral EC50 HSV-1” value turned out to be 45 µg/mL.
With `O=C(Cc1csc2nc(-c3ccc(Br)cc3)cn12)NN=C1CCC(c2ccccc2)CC1` (stereo not drawn) [Compound 4c, 6-(4-Bromophenyl)–N^2-(4-phenylcyclohexylidene)imidazo[2,1-b]thiazole-3-acetohydrazide], the “antiviral EC50 values, anti-DNA virus activity” value in the data set with DNA virus is “about 45 µg/mL”. For the same molecule, the “Cytotoxicity MCC” value in [5] is on record as at least 100 µg/mL. Also, the “Antiviral EC50 Vaccinia virus” value in the data set on Vaccinia virus stood at 45 µg/mL. In addition, in the data set on VERO cells, the “Cytotoxicity MCC” value is above 100 µg/mL. Moreover, the “Antiviral EC50 Sindbis virus” value in the data set on Sindbis virus was above 100 µg/mL. Further, the “Antiviral EC50 Vesicular stomatitis virus” value in data set [6] is above 100 µg/mL. Also, in the data set with ACV^r-HSV-1, the “Antiviral EC50 ACV^r-HSV-1” value is listed as at least 45 µg/mL. For the same molecule, the “Antiviral EC50 Punto Toro virus” value with Punto Toro virus is listed as above 100 µg/mL. Also, the “Antiviral EC50 Reovirus-1” value in the data set with Reovirus-1 is above 100 µg/mL. In the data set with CRFK feline kidney cells, the “Cytotoxicity CC50” value is given as above 100 µg/mL. Further, in [3], the “H37Rv Finding MIC” value was above 100 µg/mL and the “H37Rv Finding Activity” value is reported as “Weak Active”. Besides, in the data set with Coxsackie B4 virus, the “Antiviral EC50 Coxsackie B4 virus” value is above 100 µg/mL. Further, the “Antiviral EC50 HSV-2” value in the data set with HSV-2 was at least 45 µg/mL. Also, the “Antiviral EC50 Parainfluenza-3 virus” value in the data set on Parainfluenza-3 virus is listed as above 100 µg/mL. The “Antiviral EC50 HSV-1” value with HSV-1 is on record as 45 µg/mL.
With `O=C(Cc1csc2nc(-c3ccc(Br)cc3)cn12)NN1C(=O)CSC12CCC(c1ccccc1)CC2` (stereo not drawn) [Compound 5c, 2-[6-(4-Bromophenyl)imidazo[2,1-b]thiazole-3-yl]-N-(3-oxo-8-phenyl-1-thia-4-azaspiro[4.5]dec-4-yl)acetamide], the “Cytotoxicity MCC” value (in [5]; with VERO cells) was 20 µg/mL throughout. Further, the EC50 in the data set on Vaccinia virus, in the data set on Sindbis virus, in the data set with ACV^r-HSV-1, in the data set with Feline coronavirus, in the data set on Punto Toro virus and in the data set with Reovirus-1 was above 100 µg/mL each time. Besides, the EC50 in the data set on Feline herpesvirus, with Coxsackie B4 virus, with HSV-2, with Parainfluenza-3 virus and with HSV-1 was above 100 µg/mL each time. In addition, in data set [1], the MIC amounted to 0.854 µg/mL (≈ 1.47 µM). For the same molecule, in data set [1] (read-out: H37Rv Finding lC50), the IC50 came out at 0.76 µg/mL (≈ 1.31 µM). For the same molecule, the “H37Rv Finding Activity” value in data set [3] is listed as “Active”.
